According to US9051240B2, “Substituted 2-[2-(phenyl) ethylamino] alkaneamide derivatives and their use as sodium and/or calcium channel modulators” (Newron Pharmaceuticals S.P.A., priority 2007, dated 2015):
Structures can show the parent of a compound that is named as a salt. Where two headings read alike, the source gives them in different places.

Assays:
mice = assay: Maximal electroshock test (MES) in mice; format: in vivo; conditions: for ED50: Mus musculus, po, read-out: ED50 (mg/kg p.o.)
From the text: The maximal electroshock test (MES) is used commonly in the screening of anti-epileptic drugs in rodent models.
Animals and Apparatus: Male CD1 mice weighing 25 g were used. The procedure described by White et al. (White H. S., Woodhead J. H., Franklin M. R., Swinyard E. A., and Wolf H. H. Antiepileptic Drugs (1995) 4th ed: 99-110, Raven Press, Ltd., New York) was followed. An Ugo Basile electroconvulsive generator (Model ECT UNIT 7801) was used to deliver an electrical stimulus sufficient to produce a hindlimb tonic extensor response in at least 97% of control animals. The stimulus was delivered intra-aurally through clip electrodes in mice (0.7 s of a 40 mA shock, with a pulse train of 80 Hz having a pulse duration of 0.4 ms). The acute effect of compounds administered intraperitoneally (i.p.), subcutaneously (s.c.), intravenously (i.v.) or orally (p.o.) 5-120 minutes before MES induction were examined and compared with a vehicle control group. Ten mice were studied per group. Complete suppression of the hindlimb tonic extensor component of seizures was taken as evidence of anticonvulsant activity.
The compounds of the invention were administered p.o. or i.v., at the doses of 0.1-100 mg/kg.

MAO-B = MAO-B (Rattus norvegicus (Rat), UniProt P19643); assay: In vitro MAO-B enzyme activity assay (radioenzymatic, rat brain mitochondria); format: biochemical; conditions: 14C-PEA 0.5 μM
Experimental: Male Wistar rats (Harlan, Italy weighing 175-200 g) were sacrificed under light anaesthesia and brains were rapidly removed and homogenized in 8 volumes of ice-cold 0.32 M sucrose buffer containing 0.1 M EDTA, pH 7.4. The crude homogenate was centrifuged at 2220 rpm for 10 minutes and the supernatant recovered. The pellet was homogenized and centrifuged again. The two supernatants were pooled and centrifuged at 9250 rpm for 10 minutes at +4° C. The pellet was resuspended in fresh buffer and centrifuged at 11250 rpm for 10 minutes at +4° C. The resulting pellet was stored at −80° C. The enzyme activity was assessed with a radioenzymatic assay using the substrate ^14C-phenylethylamine (PEA) specific for MAO-B. The mitochondrial pellet (500 μg protein) was resuspended in 0.1 M phosphate buffer (pH 7.4). 200 μl of the suspension were added to a 50 μl solution of the test compound or buffer, and incubated for 30 min at 37° C. (preincubation) then the substrate (50 μl) was added. The incubation was carried out for 10 minutes at 37° C. (^14C-PEA, 0.5 μM). The reaction was stopped by adding 0.2 ml of perchloric acid. After centrifugation, the deaminated metabolites were extracted with 3 ml of toluene and the radioactive organic phase containing the neutral and/or acidic metabolites formed as a result of MAO-B activity was measured by liquid scintillation spectrometry at 90% efficiency. The MAO-B activity was expressed as nmoles of substrate transformed/mg protein/min.

TTXs sodium channels = assay: TTXs-sodium channel influx assay (fluorescence, ND7/23 cell line); format: cell-based, rat; conditions: ND7/23 cells, veratridine 100 μM; read-out: Na+ influx IC50
Experimental: ND7/23 rat dorsal root ganglion-derived cell line endogenously expresses a mixed population of TTXs sodium channels. These cells lack of TTXr sodium channels as shown by the absence of their respective transcripts.
ND7/23 cells were grown in DMEM supplemented with 10% FBS and 1 mM sodium piruvate. The cells were seeded at 50,000 cells/well on 96 poly-L-lysine-coated plates and further incubated for 18-24 h before use.
The Membrane Potential Kit Assay (Molecular Devices), based on a negatively charged fluorescent dye able to monitor changes in membrane potential caused by the sodium influx due to the channel opening, was used for the assay.
Cells were incubated with the dye loading for 30 minutes at 25° C. Then, 100 nM of the toxin Anemonia sulcata (used as enhancer of the channel opener response) alone or in the presence of TTX (as reference standard) or test compound were added for further 15 minutes.
The fluorescence (excitation:530 nm, emission: 565 nm wavelength) was measured before and after (40-45 s) the automated injection of the sodium channel opener veratridine (100 μM) using a Victor plate reader (Perkin Elmer).
(§1) The inhibition curves were calculated from 5 concentrations, each in triplicate, and the IC50 determined using linear regression analysis.

[1] = tested on: Na+ currents in ND7/23 cells (TTX-s); assay: Patch clamp evaluation of Na+ currents blockade in ND7/23 cell line; format: cell-based, rat; conditions: for Ki: calculated from Kr and Kdep, read-out: Ki (apparent affinity for the inactivated state)
Experimental: ND7/23 (ECACC No 92090903 from SIGMA), is a hybrid cell line derived from a neonatal rat DRG fused with the mouse neuroblastoma N18Tg2 (Wood et al., Proc. Biol. Sci., 1990 September, 241(1302), 187-194).
The molecular identity of the channels responsible for the TTX-s conductance is unknown but it is presumed that TTX-s conductance arises from the activity of a mixed population of sodium channels.
Cells are routinously maintained in DMEM with 10% of FBS, 4 mM glutamine, 1 mM sodium piruvate. The day before the patch clamp experiment cells are detached and seeded at 100,000 cells/polylysine-coated 35 mm Petri dish.
Experiments on ND7/23 cells were carried out using standard whole cell patch clamp methods (Hamill et al., Pfugers Arch., 1981 August, 391(12), 85-100), as described in previous section.
To test the effect of compounds on sodium currents in ND7/23 cells, holding membrane potential was set at −90 mV, then a two step protocol was used to determine the voltage dependence of the block. Sodium currents were activated by a 30 ms step pulse to 0 mV (test pulse) from a 2000 ms preconditioning potential of −110 mV (resting condition) and a potential of ˜−70 mV (half maximal steady-state condition).
Tonic block of resting and depolarized currents at a given drug concentration was calculated as the difference between the peak Na^+ current in the control external bath solution and peak currents with the test substance divided by control peak.
Drug concentration-inhibition curves were obtained by plotting tonic blocks in the resting and depolarized condition, versus drug concentrations. Dose-response curves were fitted to the tonic block data, according to the logistic equation: y=A2+(A1−A2)/[1+(x/IC50)p]. A1 and A2 are fixed values of 0 and 1 corresponding to 0 and 100% current inhibition, x is the drug concentration, IC50 is the drug concentration resulting in 50% current inhibition and p is the corresponding slope factor.
The apparent affinity of drug for the inactivated state (Ki) was calculated according to the equation 1/Kdep=h/Kr+(1−h)/Ki where Kr is the affinity of drug for the resting/closed state; Kdep is the IC50 in the depolarized condition, h and (1−h) are the fractions of channels present at the rest. and dep. potentials, respectively.
Control bath solution contained (mM): NaCl 80, Choline HCl 40, CaCl2 1.3, MgCl2 2, KCl 2, CdCl2 0.4, NiCl2 0.3, TEACl 20, Hepes 10, Glucose 10.
Internal pipette solution consisted of (mM): CsF 65, CsCl 65, NaCl 10, CaCl2 1.3, MgCl2 2, Hepes 10, EGTA 10, MgATP 1.
Compounds were dissolved as stock solutions (20 mM) in DMSO. They were diluted to the final concentrations in the external solution.

L-type calcium channels = assay: Calcium channel influx assay (fluorescence, AtT20 cell line); format: cell-based, mouse; conditions: AtT20 cells, 100 mM KCl depolarization; read-out: Ca++ influx IC50
Experimental: AtT20/D16v-F2 mouse pituitary tumour cell line preferentially expresses L-type calcium channels.
AtT20 cells were grown in DMEM with 10% of FBS, 4 mM glutamine. The cells were seeded at 200,000 cells/well on 96 poly-L-lysine-coated plates and further incubated for 18-24 h, before use.
The Ca^++ Kit Assay (Molecular Devices), which is based on a fluorescent calcium indicator to detect the calcium influx determined by depolarizing conditions, was used for the assay.
Cells were incubated with the calcium dye loading for 30 min at 37° C. Then, ω-conotoxin alone (1 μM) or in presence of nifedipine (as reference standard) or test compound were added for further 15 min.
The fluorescence (excitation: 485-emission: 535 nm wavelength) was measured before and after (30-40 sec) the automated injection of 100 mM KCl depolarizing solution using a Victor plate reader (Perkin Elmer).
as §1

[2] = read-out: IC50 depolarized, preconditioning potential ~-70 mV
[3] = read-out: IC50 resting (Kr), preconditioning potential -110 mV

Sequence of MAO-B (P19643 whole entry): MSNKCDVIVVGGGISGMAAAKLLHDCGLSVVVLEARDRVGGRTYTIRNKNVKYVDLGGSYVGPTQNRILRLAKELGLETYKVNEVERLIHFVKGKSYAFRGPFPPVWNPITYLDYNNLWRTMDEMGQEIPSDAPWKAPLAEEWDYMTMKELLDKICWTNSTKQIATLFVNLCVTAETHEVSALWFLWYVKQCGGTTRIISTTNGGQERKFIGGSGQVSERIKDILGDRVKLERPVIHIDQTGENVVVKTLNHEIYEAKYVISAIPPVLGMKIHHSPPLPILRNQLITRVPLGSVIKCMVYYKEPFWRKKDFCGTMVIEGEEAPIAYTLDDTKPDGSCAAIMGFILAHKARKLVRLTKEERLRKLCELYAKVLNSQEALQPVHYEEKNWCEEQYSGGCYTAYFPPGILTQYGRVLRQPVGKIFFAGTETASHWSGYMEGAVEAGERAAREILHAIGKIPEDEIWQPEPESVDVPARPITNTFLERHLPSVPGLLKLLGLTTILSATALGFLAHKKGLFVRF

Structure (SMILES)	% protection 10 mg/kg p.o. (mice; mice, MES) [%]	IC50 (TTXs sodium channels) [µM]	IC50 (L-type calcium channels) [µM]	other results
CCCCOc1ccc(F)c(CCNCC(=O)N(C)C)c1F.Cl [2-[2-(3-Butoxy-2,6-difluorophenyl)-ethylamino]-N,N-dimethylacetamide hydrochloride]	100	2.6	–	ED50 (mice; mice, MES, p.o.): 2 mg/kg; IC50 (MAO-B): > 300 µM
CCCCOc1cccc(CCNCC(=O)N(C)C)c1F [2-[2-(3-Butoxy-2-fluorophenyl)-ethylamino]-N,N-dimethylacetamide]	–	–	–	Ki [1]: 1 µM; IC50 [1, 2]: 1.7 µM; IC50 [1, 3]: 13 µM
CCCCOc1cc(CCNCC(=O)N(C)C)ccc1OC [2-[2-(3-Butoxy-4-methoxyphenyl)-ethylamino]-N,N-dimethylacetamide hydrochloride]	–	–	–	IC50 (MAO-B): > 300 µM
CCCCOc1cc(CCNCC(=O)N(C)C)ccc1C.Cl [2-[2-(3-Butoxy-4-methylphenyl)-ethylamino]-N,N-dimethylacetamide hydrochloride]	40	0.7	10	–
CCCCOc1cccc(CCNCC(=O)N2CCCC2)c1 [2-[2-(3-Butoxyphenyl)-ethylamino]-1-pyrrolidin-1-yl-ethanone hydrochloride]	–	2.1	–	–
CCCCOc1cccc(CCNC(C)(C)C(=O)N(C)C)c1 [2-[2-(3-Butoxyphenyl)-ethylamino]-2,N,N-trimethylpropanamide hydrochloride]	–	0.7	–	–
CCCCOc1cccc(CCNCC(=O)N(CCCC)CCCC)c1 [2-[2-(3-Butoxyphenyl)-ethylamino]-N,N-dibutylacetamide hydrochloride]	–	1.2	1.8	–
CCCCOc1cccc(CCNCC(=O)N(CC)CC)c1 [2-[2-(3-Butoxyphenyl)-ethylamino]-N,N-diethylacetamide hydrochloride]	–	0.6	6.7	–
CCCCOc1cccc(CCNC(C)C(=O)N(C)C)c1.Cl (stereo not shown) [2-[2-(3-Butoxyphenyl)-ethylamino]-N,N-dimethylpropanamide hydrochloride]	60	1.1	–	ED50 (mice; mice, MES, p.o.): 6.5 mg/kg; IC50 (MAO-B): > 300 µM
CCCCOc1cccc(CCNCC(=S)N(C)C)c1 [2-[2-(3-Butoxyphenyl)-ethylamino]-N,N-dimethylthioacetamide hydrochloride]	–	1.2	7.6	–
CCCCOc1cccc(CCNCC(=O)N(CCC)CCC)c1 [2-[2-(3-Butoxyphenyl)-ethylamino]-N,N-dipropylacetamide hydrochloride]	–	0.5	1.1	–
CCCCOc1cccc(CCNCC(=O)NC)c1.Cl [2-[2-(3-Butoxyphenyl)-ethylamino]-N-methylacetamide hydrochloride]	30	–	–	ED50 (mice; mice, MES, p.o.): 12.1 mg/kg; IC50 (MAO-B): 110 µM
CCCCSc1cccc(CCNCC(=O)N(C)C)c1 [2-[2-(3-Butylthiophenyl)-ethylamino]-N,N-dimethylacetamide hydrochloride]	–	–	7.2	–
CCCCCCOc1cccc(CCNCC(=O)N(C)C)c1.Cl [2-[2-(3-Hexyloxyphenyl)-ethylamino]-N,N-dimethylacetamide hydrochloride]	100	0.5	4	ED50 (mice; mice, MES, p.o.): 4.6 mg/kg
CCCCCOc1cccc(CCNCC(=O)N(C)C)c1.Cl [2-[2-(3-Pentyloxyphenyl)-ethylamino]-N,N-dimethylacetamide hydrochloride]	100	0.5	8.3	ED50 (mice): 2.8 mg/kg; Ki [1]: 0.5 µM; IC50 [1, 2]: 0.7 µM; IC50 [1, 3]: 2.9 µM
CCCCCOc1cccc(CCNCC(=O)N(CCC)CCC)c1 [2-[2-(3-Pentyloxyphenyl)-ethylamino]-N,N-dipropylacetamide hydrochloride]	–	1.1	6.9	–
CN(C)C(=O)CNCCc1cccc(OCCCC(F)(F)F)c1 [2-{2-[3-(4,4,4-Trifluorobutoxy)phenyl]-ethylamino}-N,N-dimethylacetamide hydrochloride]	–	–	9.3	–
